Reference: patent publication US20240294545A1 (CSPC Zhongqi Pharmaceutical Technology (Shijiazhuang) Co., …, priority 2020, published 2024)
pIC50: −log10 of the molar value. Marks after values point to notes of the source that are not given here.

Experiments:
[1] = tested on: subcutaneous xenograft tumor of human glioblastoma LN-18; assay: LN-18 subcutaneous xenograft, combined with radiotherapy; type: in vivo, NOG mice; conditions: compound 20 mg/kg intragastric qd × 5 + IR 1 Gy, day 17
Procedure: 9 Efficacy Test of the Compounds of the Present Disclosure Combined with Radiotherapy on Inhibiting the Growth of Subcutaneous Xenograft Tumor of Human Glioblastoma LN-18
9.1 Experimental Animals: NOG Mice, SPF, Female, 18 to 22 g.
LN-18 tumor cells, DMEM medium:fetal bovine serum=95%:5%, accompanied by adding 100 U/mL penicillin and 100 μg/mL streptomycin, 37° C., 5% CO2.
LN18 tumor cells resuspended in serum-free DMEM medium were inoculated subcutaneously in the right costal region of experimental animals at 1.5*10^7/0.15 mL, and the animals were grouped when the tumor grew to 100 to 150 mm^3. Radiotherapy was performed 1 h after administration of compounds.
Tumor volume: The tumor volume was measured twice a week with a vernier caliper, and the long diameter and short diameter of tumor were measured. The tumor volume was calculated as follows: tumor volume (TV)=0.5×long diameter×short diameter^2. Tumor growth inhibitory rate (TGI %) was calculated according to the tumor volume. TVXn represents the mean tumor volume on day n of the treatment group, TVX0 represents the mean tumor volume on day 0 of the treatment group, TVMn represents the mean tumor volume on day n of the control group, and TVM0 represents the mean tumor volume on day 0 of the control group.

[2] = tested on: subcutaneous xenograft tumor of human non-small cell lung cancer cell line NCI-H441; assay: NCI-H441 subcutaneous xenograft, combined with irinotecan liposome injection; type: in vivo, NU/NU mice
Procedure: 6 Efficacy Test of the Compounds of the Present Disclosure Combined with Irinotecan Liposome Injection on Inhibiting the Growth of Subcutaneous Xenograft Tumor of Human Non-Small Cell Lung Cancer Cell Line NCI-H441
6.1 Experimental Animals: NU/NU Mice, SPF, Female, 20 to 30 g.
Irinotecan liposome injection (HE072), 43 mg:10 mL, milky white liquid, batch No. B37191202, provided by Preparation Research Institute 2 from CSPC Zhongqi Pharmaceutical Technology (Shijiazhuang) Co., Ltd., diluted to an appropriate concentration with 5% glucose injection while testing.
NCI-H441 cells, provided by Nanjing Kebai Biotechnology Co., Ltd.; 1640 culture medium (gibco Company):fetal bovine serum (Lanzhou Bailing)=90%:10%, 37° C., 5% CO2.
NU/NU nude mice were subcutaneously inoculated with NCI-H441 human non-small cell lung cancer cells. When the mean tumor volume reached 170 to 172 mm^3 (15 days after inoculation), the animals were evenly divided into groups according to the tumor volume (d0), with 6 mice in each group. 2.5 mg/kg of HE072 was administered intraperitoneally once a week for 2 times. Vehicle control, 25 mg/kg of A-193, 25 mg/kg of A-182, and 25 mg/kg of AZD1390 were administered intragastrically once a day, from Monday to Thursday every week except Friday to Sunday, for 2 weeks (8 times). The tumor volume was measured twice a week, the body weight of mouse was weighed every day, and the data were recorded. The tumor volume (TV) was calculated according to the formula: TV=½×a×b2, wherein a and b represent the long and short diameters of tumor, respectively. Tumor growth inhibitory rate TGI (%)=[1−(Ti−T0)/(Vi−V0)]×100, wherein Ti represents the mean tumor volume of a given treatment group on a certain day; TO represents the mean tumor volume of this treatment group at the beginning of administration; Vi represents the mean tumor volume of the vehicle control group on a certain day (the same day as that in Ti); V0 represents the mean tumor volume of the vehicle control group at the beginning of administration. At the end of the test (d17), the animals were sacrificed, the tumors were stripped and weighed, and the tumor weight inhibitory rates were calculated.

ATM = ATM (Homo sapiens (Human), UniProt Q13315); assay: Caliper mobility shift assay for ATM; type: biochemical; conditions: read-out: IC50 of inhibitory activity on ATM kinase
Procedure: 1.2 Determination of the Inhibitory Activities of Compounds on ATM: Caliper Mobility Shift Assay for ATM
To a 96-well plate, 98 μL of DMSO and 2 μL of the 10 mM stock solution were added and mixed evenly so that the concentration of the solution was 200 μM.
Based on the inhibitory rates of the compound at different concentrations, IC50 was calculated according to the formula: Y=Bottom+(Top−Bottom)/(1+(IC50/X)^HillSlope).

[3] = tested on: intracranial murine glioma GL-261-Luc; assay: Intracranial murine glioma GL-261-Luc model, combined with radiotherapy; type: in vivo, C57BL/6 mice
Procedure: 8 Efficacy Test of the Compounds of the Present Disclosure Combined with Radiotherapy in the Intracranial Murine Glioma GL-261-Luc Model
8.1 Experimental Animals: C57BL/6 Mice, SPF, Female, 19 to 22 g.
GL-261-Luc tumor cells, DMEM medium:fetal bovine serum=90%:10%, accompanied by adding […] L-Glu, 37° C., 5% CO2.
Female C57BL/6 mice were anesthetized with Shutai 50 (60 mg/mL) and thiazine (1.5 mg/mL). Buprenorphine (0.1 mg/kg) was injected subcutaneously 30 min before operation and 6 h after operation to relieve pain. The operation area was disinfected with 70% ethanol solution. A sagittal incision was made on the parietal-occipital bone of anesthetized mice with a sterile scalpel, after cleaning the exposed skull surface with 3% hydrogen peroxide solution, tumor cells were injected. After injection, the skull was cleaned with 3% hydrogen peroxide solution, dried with a sterile dry cotton swab, and the incision was sutured. The state of mice was examined continuously to ensure that mice fully recovered from anesthesia.
The inoculated mice were weighed and intraperitoneally injected with […] (150 mg/kg). After 10 min injection, the animals were anesthetized with a mixture of oxygen and isoflurane. When the animal was completely anesthetized, it was moved into the imaging room for bioluminescence detection. The bioluminescence signal of the whole animal was measured and recorded for the image.
Bioluminescence detection was performed on the second day after operation, and the tumor-bearing mice were randomly divided into groups according to the intensity of bioluminescence. The specific groups were as follows. The administration route was intragastric administration and then JR 1 h after administration.
After grouping, bioluminescence detection was performed 1 to 2 times a week, according to the bioluminescence data, tumor growth inhibitory rate was calculated as follows: TGI (%)=[1−(Ti−T0)/(Vi−V0)]×100, wherein Ti represents the mean bioluminescence data of a given treatment group on a certain day; T0 represents the mean bioluminescence data of this treatment group at the beginning of administration; Vi represents the mean bioluminescence data of the vehicle control group on a certain day (the same day as that in Ti); V0 represents the mean bioluminescence data of the vehicle control group at the beginning of administration.

[4] = compound 25 mg/kg intragastric + irinotecan liposome 2.5 mg/kg ip, day 17
[5] = compound 25 mg/kg intragastric + irinotecan liposome 2.5 mg/kg ip, end of test d17

ATM, sequence (Q13315 whole entry): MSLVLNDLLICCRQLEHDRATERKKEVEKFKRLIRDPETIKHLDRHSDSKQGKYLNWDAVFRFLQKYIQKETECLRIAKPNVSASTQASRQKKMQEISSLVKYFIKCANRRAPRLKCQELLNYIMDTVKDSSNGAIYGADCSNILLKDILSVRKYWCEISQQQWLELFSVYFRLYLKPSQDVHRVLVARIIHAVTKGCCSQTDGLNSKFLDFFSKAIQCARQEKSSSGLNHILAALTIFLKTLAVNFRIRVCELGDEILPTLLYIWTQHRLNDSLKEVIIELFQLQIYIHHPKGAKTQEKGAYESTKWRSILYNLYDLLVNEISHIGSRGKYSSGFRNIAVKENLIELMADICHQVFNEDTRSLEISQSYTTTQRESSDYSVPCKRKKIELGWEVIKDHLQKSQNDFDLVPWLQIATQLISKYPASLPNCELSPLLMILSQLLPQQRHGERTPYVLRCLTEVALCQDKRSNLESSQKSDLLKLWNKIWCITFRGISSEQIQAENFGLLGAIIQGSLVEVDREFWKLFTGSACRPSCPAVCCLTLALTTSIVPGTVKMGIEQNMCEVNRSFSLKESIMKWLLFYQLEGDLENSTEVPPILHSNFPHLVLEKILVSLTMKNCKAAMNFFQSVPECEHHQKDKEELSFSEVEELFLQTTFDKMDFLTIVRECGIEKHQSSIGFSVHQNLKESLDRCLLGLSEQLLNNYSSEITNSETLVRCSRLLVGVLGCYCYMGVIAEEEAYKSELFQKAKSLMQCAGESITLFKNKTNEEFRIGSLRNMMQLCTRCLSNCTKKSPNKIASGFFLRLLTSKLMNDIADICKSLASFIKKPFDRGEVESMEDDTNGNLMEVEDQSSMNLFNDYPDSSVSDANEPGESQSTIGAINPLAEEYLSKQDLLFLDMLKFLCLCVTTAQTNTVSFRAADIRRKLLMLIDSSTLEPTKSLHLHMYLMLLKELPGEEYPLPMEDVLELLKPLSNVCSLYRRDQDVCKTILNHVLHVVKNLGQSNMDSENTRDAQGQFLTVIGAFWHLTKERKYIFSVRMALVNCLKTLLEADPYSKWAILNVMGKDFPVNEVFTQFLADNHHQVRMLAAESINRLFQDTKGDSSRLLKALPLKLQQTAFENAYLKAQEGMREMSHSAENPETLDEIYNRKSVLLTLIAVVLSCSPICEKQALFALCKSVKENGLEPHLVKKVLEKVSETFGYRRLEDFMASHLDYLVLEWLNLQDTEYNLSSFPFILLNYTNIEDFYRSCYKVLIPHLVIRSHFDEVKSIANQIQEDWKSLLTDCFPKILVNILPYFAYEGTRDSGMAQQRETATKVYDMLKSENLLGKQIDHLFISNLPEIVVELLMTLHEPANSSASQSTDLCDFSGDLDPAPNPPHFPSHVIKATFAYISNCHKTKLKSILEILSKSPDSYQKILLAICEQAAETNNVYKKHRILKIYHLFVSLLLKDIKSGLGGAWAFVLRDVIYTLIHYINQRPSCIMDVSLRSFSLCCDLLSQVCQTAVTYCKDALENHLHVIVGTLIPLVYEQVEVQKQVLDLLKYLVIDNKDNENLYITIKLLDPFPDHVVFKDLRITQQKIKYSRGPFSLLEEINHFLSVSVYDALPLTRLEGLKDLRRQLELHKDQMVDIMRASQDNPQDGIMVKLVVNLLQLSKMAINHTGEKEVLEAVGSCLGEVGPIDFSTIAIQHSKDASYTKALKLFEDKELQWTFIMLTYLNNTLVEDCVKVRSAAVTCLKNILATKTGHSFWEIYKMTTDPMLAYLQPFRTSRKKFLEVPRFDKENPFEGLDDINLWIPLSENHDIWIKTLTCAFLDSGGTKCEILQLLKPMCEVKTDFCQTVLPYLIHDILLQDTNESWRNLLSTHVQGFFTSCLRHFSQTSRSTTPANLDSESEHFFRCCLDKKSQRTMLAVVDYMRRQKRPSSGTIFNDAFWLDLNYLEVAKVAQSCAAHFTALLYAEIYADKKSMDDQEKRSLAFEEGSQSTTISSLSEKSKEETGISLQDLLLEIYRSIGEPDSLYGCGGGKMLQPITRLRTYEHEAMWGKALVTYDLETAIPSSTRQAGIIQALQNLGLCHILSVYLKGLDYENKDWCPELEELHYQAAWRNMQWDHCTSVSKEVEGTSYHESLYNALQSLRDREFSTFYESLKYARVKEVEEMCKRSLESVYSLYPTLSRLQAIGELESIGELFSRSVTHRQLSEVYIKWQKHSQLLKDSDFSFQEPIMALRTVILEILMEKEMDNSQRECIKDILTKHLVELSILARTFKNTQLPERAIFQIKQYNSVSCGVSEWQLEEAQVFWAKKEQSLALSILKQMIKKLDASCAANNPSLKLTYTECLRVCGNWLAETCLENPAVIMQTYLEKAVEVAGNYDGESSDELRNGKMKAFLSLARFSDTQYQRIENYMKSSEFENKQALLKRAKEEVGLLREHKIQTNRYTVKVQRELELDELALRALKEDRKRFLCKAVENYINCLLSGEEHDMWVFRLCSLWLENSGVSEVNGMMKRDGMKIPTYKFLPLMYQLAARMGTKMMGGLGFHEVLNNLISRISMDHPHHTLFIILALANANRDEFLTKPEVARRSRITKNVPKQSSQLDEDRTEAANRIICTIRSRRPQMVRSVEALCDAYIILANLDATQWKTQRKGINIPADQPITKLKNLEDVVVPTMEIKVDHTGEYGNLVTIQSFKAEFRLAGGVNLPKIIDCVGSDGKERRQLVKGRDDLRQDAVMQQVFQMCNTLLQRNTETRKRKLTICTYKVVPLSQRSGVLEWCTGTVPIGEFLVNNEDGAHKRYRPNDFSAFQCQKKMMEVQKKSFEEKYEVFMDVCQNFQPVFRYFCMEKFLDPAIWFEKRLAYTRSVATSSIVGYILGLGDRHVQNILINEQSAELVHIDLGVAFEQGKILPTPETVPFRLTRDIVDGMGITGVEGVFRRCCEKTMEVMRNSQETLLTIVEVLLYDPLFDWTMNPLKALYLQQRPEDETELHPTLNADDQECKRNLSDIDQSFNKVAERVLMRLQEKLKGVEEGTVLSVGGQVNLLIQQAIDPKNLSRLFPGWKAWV

In the case of `C[C@@H]1COc2c(-c3ccc(OCCCN4CCCCC4)nc3)ccc3ncc4c(c23)n1c(=O)n4C` [Example A-182, (R)-2,10-dimethyl-7-(6-(3-(piperidin-1-yl)propoxy)pyridin-3-yl)-9,10-dihydro-8-oxa-2,4,10a-triazanaphtho[2,1,8-cde]azulen-1(2H)-one], the “D 17 TGI” value [1] was 85.5%, the “D 17 TV (MEAN ± SD)” value [1] was 271 ± 107***^# mm^3 and the “inhibitory effect on tumor volume and tumor weight, in words” value ([2]; combined with irinotecan liposome injection, compared with AZD1390) was “higher than those of AZD1390”. The “D 17 TGI” value [2, 4] was 75.1%, the “D 17 TV (MEAN ± SD)” value [2, 4] was 278.5 ± 94.1***^## mm^3 and the Tumor weight [2, 5] was 0.26 ± 0.07 g. For the same compound, the “Tumor weight inhibitory rate” value [2, 5] was 56.1%, the pIC50 (ATM) was 9.34 and the “anti-tumor activity, in words” value ([3]; combined with radiotherapy, compared with AZD1390) was “equivalent to that of AZD1390”. The “D17 BLI” value ([3]; compound 10 mg/kg intragastric qd × 5 + IR 2 Gy, day 17) was 5.24*** LOG10 and the “D 17 TGI” value ([3]; compound 10 mg/kg intragastric qd × 5 + IR 2 Gy, day 17, from bioluminescence) was 110.08%.
